In patent publication US5521193A, “Benzimidazole compounds” (G. D. Searle & Co., priority 1995, dated 1996):

How the values were obtained:
5-HT3 = assay: Bezold-Jarisch Reflex (inhibition of 5-HT-induced bradycardia in anesthetized mice); assay type: in vivo; settings: i.p., 30 min before 5-HT 0.25 mg/kg i.v.; >50 percent reduction in bradycardic response vs vehicle considered significant; pentobarbital anesthetized mice
Description: (§1) 5-HT4 agonist activity was determined in the in vitro rat tunice muscularis mucosae (TMM) assay. (Baxter et el., Naunyn Schmied Arch. Pharmacol, 1991, 343,439). The 5-HT4 agonist or antagonist activity and/or 5-HT3 antagonist activity of the compounds of the invention herein, can be determined by the assays as described herein, without undue experimention.
The compound to be evaluated was administered i.p. (mg/kg) to a group of 3 mice. […] A greater than 50 percent (>50) reduction in the bradycardic response relative to vehicle-treated control mice was considered significant.
This method has been described by Saxena, P. R. and Lawang, A., Arch. Int. Pharmacodyn., 277:235-252, 1985.
The assay results for the compounds of the present invention and their Minimum Effective Dose (MED) and the reference compounds and their MEDs are recorded in Table I.

5-HT4 receptor = target: T1, 5-HT4 receptor (Rattus norvegicus, UniProt Q62758); assay: biochemical; settings: carbachol (3 μM)-contracted rat esophagus TMM; 37° C.; tissues from 5 rats; read-out: 5-HT4 Agonism (Rat TMM) In Vitro Assay: EC50 Values
T1 construct: One 2 cm segment of intrathoracic esophagus proximal to the diaphragm was removed from male rats; from tissue; host or cells: rat intrathoracic oesophagus, inner tunica muscularis mucosae
T1 sequence (Q62758 whole entry): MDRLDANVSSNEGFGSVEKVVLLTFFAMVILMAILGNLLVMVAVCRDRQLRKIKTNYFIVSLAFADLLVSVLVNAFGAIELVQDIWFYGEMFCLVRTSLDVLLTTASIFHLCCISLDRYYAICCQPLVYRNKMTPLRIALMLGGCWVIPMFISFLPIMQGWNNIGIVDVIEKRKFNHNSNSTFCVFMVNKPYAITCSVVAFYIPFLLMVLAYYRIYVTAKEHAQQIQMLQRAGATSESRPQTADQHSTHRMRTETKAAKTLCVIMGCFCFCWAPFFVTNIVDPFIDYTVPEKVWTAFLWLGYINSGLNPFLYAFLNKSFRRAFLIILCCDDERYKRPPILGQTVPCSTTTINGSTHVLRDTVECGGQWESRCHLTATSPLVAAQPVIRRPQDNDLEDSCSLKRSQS
Description: as §1
Agonist activity was determined utilizing relaxation of carbachol-contracted rat tunica muscularis mucosae. One 2 cm segment of intrathoracic esophagus proximal to the diaphragm was removed from male rats, weighing approximately 300 gm, and the outer muscle layers removed. The inner tunica muscularis mucosa was mounted under 0.2-0.3 g of tension in a tissue bath containing oxygenated Tyrode's solution at 37° C. […] Following a 30 min equilibrium period, tissues were isometrically contracted with carbachol (3 μM) to obtain a tonic contraction. A stable plateau was obtained within 20 min when test compound was added cumulatively to relax the muscle strip. EC50 values were obtained for each agonist in tissues from 5 rats.

5-HT3 receptor = target: T2, 5-HT3 receptor (Rattus norvegicus, UniProt P35563); assay: Serotonin (5-HT3) radioligand binding, [3H]-GR65630, rat brain cortex membranes; settings: Ki, [3H]-GR65630 0.2 nM; 60 min, 22° C.
T2 construct: Brain cortices were obtained from male rats and a membrane fraction prepared by standard techniques; from tissue; host or cells: rat brain cortex membranes
T2 sequence (P35563 24-483): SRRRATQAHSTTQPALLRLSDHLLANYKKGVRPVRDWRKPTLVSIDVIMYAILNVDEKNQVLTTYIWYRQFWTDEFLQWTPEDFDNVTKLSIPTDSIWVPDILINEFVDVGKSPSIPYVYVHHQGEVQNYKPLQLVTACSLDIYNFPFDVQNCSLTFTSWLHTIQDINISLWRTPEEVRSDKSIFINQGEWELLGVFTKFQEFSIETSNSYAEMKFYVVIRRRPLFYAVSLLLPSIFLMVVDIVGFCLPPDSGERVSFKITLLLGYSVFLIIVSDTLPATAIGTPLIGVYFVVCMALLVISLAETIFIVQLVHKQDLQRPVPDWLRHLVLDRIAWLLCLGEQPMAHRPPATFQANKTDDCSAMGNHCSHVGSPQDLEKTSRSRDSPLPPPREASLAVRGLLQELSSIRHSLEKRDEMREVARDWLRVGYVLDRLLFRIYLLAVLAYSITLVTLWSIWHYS
Description: GR65630 binds to the 5-HT3 receptor. Brain cortices were obtained from male rats and a membrane fraction prepared by standard techniques. 0.04 mg of membrane prep was incubated with 0.2 nM […] for 60 minutes at 22° C. […] Membranes were filtered and washed times and the filters were counted to determine [3H]-GR65630 specifically bound. Kilpatrick G. J., Jones B. J. and Tyers M. B. Identification and distribution of 5-HT3 receptors in rat brain using radioligand binding assay. Nature, 330 : 746-748, 1987.

| SMILES | Minimum Effective Dose (MED) (5-HT3) [mg/kg] | EC50 (5-HT4 receptor) [nM] | Ki (5-HT3 receptor) [nM] |
| --- | --- | --- | --- |
| CC[C@@H](CO)NC(=O)[C@@H]1C=C2c3cccc4c3c(cn4C)C[C@H]2N(C)C1 [methylsergide] | > 10 | – | – |
| CC(C)n1c(=O)n(C(=O)NCCC23CCCN2CCC3)c2ccccc21 [Example 13, N-[2-(hexahydro-7aH-pyrrolizin-7a-yl)ethyl]-2,3-dihydro-3-(1-methylethyl) 2-oxo-1H-benzimidazole-1-carboxamide] | 10 | 179 | 120 |
